Assay results as given in patent US8067445B2, “N,N-disubstituted aminoalkylbiphenyl antagonists of prostaglandin D2 receptors” (Panmira Pharmaceuticals, LLC, priority 2008, dated 2011).
pIC50: −log10 of the molar value.

What was measured:
[1] = target: T1, recombinant human CRTH2 receptor (Homo sapiens, UniProt Q9Y5Y4); experiment: GTPγS binding assay; type: biochemical; settings: +HSA (0.2% human serum albumin), 80 nM PGD2, CHO cell membranes; read-out: hDP2 GTPγS μM (+HSA)
T1 construct: expressed in transfected cells
T1 sequence (Q9Y5Y4 1-395): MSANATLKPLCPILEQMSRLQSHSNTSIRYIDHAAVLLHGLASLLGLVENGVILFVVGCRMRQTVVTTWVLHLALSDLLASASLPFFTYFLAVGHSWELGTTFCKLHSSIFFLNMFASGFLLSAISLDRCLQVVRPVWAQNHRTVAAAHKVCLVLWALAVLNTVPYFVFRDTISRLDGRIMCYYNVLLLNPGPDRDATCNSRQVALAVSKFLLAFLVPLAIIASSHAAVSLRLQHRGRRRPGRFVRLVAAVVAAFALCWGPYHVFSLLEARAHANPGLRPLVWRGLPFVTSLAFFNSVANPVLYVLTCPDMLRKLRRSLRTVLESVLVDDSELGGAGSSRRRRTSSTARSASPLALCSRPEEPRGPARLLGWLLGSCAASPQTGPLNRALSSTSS
Procedure: The ability of a compound to inhibit binding of GTP to DP2 is assessed via a membrane GTPγS assay. CHO cells stably expressing the recombinant human CRTH2 receptor are resuspended in 10 mM Hepes, 7.4 containing 1 mM DTT, lysed and centrifuged at 75,000×g to pellet the membranes. The membranes are resuspended in 10 mM Hepes, 7.4 containing 1 mM DTT and 10% glycerol. […] The reactions are terminated by rapid filtration through Whatman GF/B glass fibre filter plates. The filter plates are washed 3 times with 1 ml cold Assay Buffer and dried. Scintillant is then added to the plates and the radioactivity retained on the filters is determined on a Packard TopCount (Perkin Elmer). Specific binding is determined as total radioactive binding minus non-specific binding in the absence of the ligand (80 nM PGD2). IC50s were determined using Graphpad prism analysis of drug titration curves.

human DP2 receptor = target: T2, human DP2 receptor (Homo sapiens, UniProt Q9Y5Y4); experiment: DP2/CRTH2 radioligand binding assay ([3H]PGD2); settings: [3H]PGD2 binding, membranes of HEK293 cells expressing human DP2; read-out: hDP2
T2 construct: expressed in transfected cells
T2 sequence (Q9Y5Y4 1-395): T1 sequence (Q9Y5Y4 1-395)
Procedure, shortened: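 Membranes from HEK293 cells stably expressing recombinant human DP2 incubated 60 min at room temperature with 1 nM [3H]PGD2 and compound in pH 7.4 Hepes/MnCl2/EDTA buffer, ± 0.2% human serum albumin. Bound radioactivity measured after filtration; non-specific binding defined with 10 μM PGD2. IC50 from titration curves.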

human DP1 receptor = target: T3, human DP1 receptor (Homo sapiens, UniProt Q13258); experiment: DP1 radioligand binding assay ([3H]BWA868C, platelet membranes); settings: [3H]BWA868C binding, human platelet membranes; read-out: hDP1
T3 construct: tissue Biological Specialty Corporation; host or cells: human platelet membranes
T3 sequence (Q13258 1-359): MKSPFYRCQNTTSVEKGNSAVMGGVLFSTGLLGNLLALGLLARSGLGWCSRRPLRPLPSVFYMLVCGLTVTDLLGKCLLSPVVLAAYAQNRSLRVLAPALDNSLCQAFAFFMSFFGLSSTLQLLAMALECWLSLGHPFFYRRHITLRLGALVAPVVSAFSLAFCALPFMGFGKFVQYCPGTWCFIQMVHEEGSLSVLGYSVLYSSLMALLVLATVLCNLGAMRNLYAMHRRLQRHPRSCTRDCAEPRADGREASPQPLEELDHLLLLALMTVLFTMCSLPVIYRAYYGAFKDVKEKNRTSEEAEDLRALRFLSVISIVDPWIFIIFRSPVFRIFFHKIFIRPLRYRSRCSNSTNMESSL
Procedure, shortened: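 Human platelet membranes (20 μg protein/well) incubated 60 min at room temperature with 2 nM [3H]BWA868C and compound in 50 mM Hepes, 10 mM MnCl2, 1 mM EDTA, pH 7.4, ± 0.2% human serum albumin. Bound radioactivity measured after filtration; nonspecific binding defined with 10 μM BWA868C; IC50 from titration curves.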

SMILES	IC50 [1] [µM]	pIC50 (human DP2 receptor)	pIC50 (human DP1 receptor)
COCCN(Cc1cc(C(F)(F)F)ccc1-c1cc(CC(=O)O)ccc1OC)C(C)=O [Compound 1-6, (2′-{[Acetyl-(2-methoxy-ethyl)-amino]-methyl}-6-methoxy-4′-trifluoromethyl-biphenyl-3-yl)-acetic acid]	< 0.3	> 6.52	4.52 to 6.00
CCN(Cc1cc(C(F)(F)F)ccc1-c1cc(C(C)C(=O)O)ccc1OC)C(=O)OCc1ccccc1 (stereo not drawn) [Compound 1-98, 2-{2′-[(Benzyloxycarbonyl-ethyl-amino)-methyl]-6-methoxy-4′-trifluoromethyl-biphenyl-3-yl}-propionic acid]	< 0.3	> 6.52	4.52 to 6.00
CCN(Cc1cc(C(F)(F)F)ccc1-c1cc(CC(=O)O)cc(C(F)(F)F)c1)C(=O)OCc1ccccc1 [Compound 1-109, {2′-[(Benzyloxycarbonyl-ethyl-amino)-methyl]-5,4′-bis-trifluoromethyl-biphenyl-3-yl}-acetic acid]	< 0.3	> 6.52	4.52 to 6.00
